Data published in patent publication US6262095A, “Use of tricyclic derivatives of 1,4-dihydro-1,4-dioxo-1H-naphthalene, novel compounds obtained and their application in theraphy” (Laboratoire Innothera, priority 1995, dated 2001).

Experiments:
[1] = system: capillary resistance of rats; test: Capillary resistance of rats after oral administration (petechial index); type: in vivo, rat (Wistar); settings: rat
Experimental: The increase in the capillary resistance is evaluated by the modification of the petechial index (negative pressure inducing the extravasation of the erythrocytes), measured by a method derived from the angiosterrometer of Parrot.
The studies are carried out on male Wistar rats with an average weight of 200 g (approximate age six weeks). The bottom area of the back is shorn, then the hair is pulled by means of a paste based on a derivative of thioglycolic acid and calcium hydroxide. After approximately 30 min, the skin is abundantly rinsed and dried.
On the day of the study, the rats are maintained without constraint. A low pressure of 80 mm of mercury is applied. If the petechiae (extravasation of erythrocytes) have not appeared within 15 sec, the low pressure is increased as a countermeasure, keeping the suction cap at the same place.
The minimum low pressure where petechias appear, in mm of mercury, expresses the basal capillary resistance (before any treatment). Two measurements are made for each test at different sites on of the back.
The rats are treated by the oral route. […] All the measurements are done in the blind mode.
A percentage of variation in the capillary resistances of the animals treated compared to their basal capillary resistance is calculated for each compound studied, at each treatment time and compared with the control group (excipient only) or the reference group.

[2] = system: saphenous vein in rabbits; test: Contractile effect on the rabbit saphenous vein precontracted by a depolarizing physiological solution (K+ 40 mM); type: cell-based; settings: Oryctolagus cuniculus, precontracted with 40 mM potassium; for Emax: % of maximum contraction induced by hyperpotassic solutions; for EC50: read-out: ED50 (the source's name)
Experimental: The contractile effects are measured in vitro under static conditions on vascular capacitance or resistance rings of saphenous, femoral, jugular, mesenteric, and caval veins . . . and on femoral, carotid, basilar, or mesenteric arteries, as well as the thoracic or abdominal aorta . . . in rats (Wistar, 200-250 g), rabbits (New Zealand, 2-2.5 kg), guinea pigs (Dunkin Hartley 250-300 g).
The rings are placed in a chamber for isolated organs (25 mL for capacitance vessels and 2.5 mL for resistance vessels according to Mulvany), and maintained under isometric conditions using two rigid threads inserted inside the vessel, avoiding causing damage to the endothelium. The vessels are bathed in a modified Krebs solution (in mM: NaCl=118; KCl=4.6; CaCl2 =2.5; MgSO4 =1.2; KH2 PO4 =1.17; NaHCO3 =25; glucose=11), continuously aerated using a gaseous mixture of 95% O2 and 5% Co2, at a pH=7.4, and regulated by thermostat at 37° C. The rings are adjusted to their optimal point as far as the tension-length relationship is concerned. The tensions developed generate an electrical signal through the intermediary of a force sensor (Wheatstone bridge). […] The pharmacological studies are carried out after a few standardized preliminary contractile stimulations using a depolarizing solution (hyperpotassic type obtained by replacing NaCl with KCl in equimolar quantities), along with rinsings and periods of equilibration in a pure physiological solution. The presence of endothelium is verified by the relaxation induced by increasing the concentration of acetylcholine after the stabilization of a vascular precontraction.
The forces of contraction developed by the vascular rings in response to the different compounds are studied on quiescent or electrically stimulated vessels (5-8 Hz), by a "physiological" depolarizing hyperpotassic solution (KCl: 20, 40 mM), by noradrenaline (increasing concentrations), [and by] serotonin (increasing concentrations).
The contractions are expressed in mg force or as a percentage of the maximum contraction at the time of the depolarization with a "physiological" hyperpotassic solution.
The contractile effect of different compounds on the saphenous vein in rabbits, precontracted by a depolarizing "physiological" solution with a potassium concentration of 40 mM, is given as an illustration; the maximum effect produced by each compound is expressed as a percentage of the maximum contraction induced by depolarizing hyperpotassic solutions and as value of ED50): […]

mice = test: Single oral administration toxicity in mice; type: in vivo, mouse
Description: (§1) Moreover, the compounds of the invention and their possible salts have a very low toxicity.

[3] = system: hyperpermeability induced by zymosan in rats; test: Inflammatory hyperpermeability induced by zymosan in rats; type: in vivo, rat (Wistar); settings: rat, oral
Experimental: The vascular permeability is studied in vivo by measuring the extravasation of albumin, the quantity of which is determined using an albumin-binding dye (Evans blue).
The hyperpermeability is induced by the intradermal injection of a solution of histamine, bradykinin, or zymosan.
The abdominal walls of the rats (Wistar, 200-230 g) are shorn 1 h before the start of the experiment. The product to be tested is injected by the intraperitoneal route or orally 1-4 h before the sacrifice. The rats are anesthetized with a halothane mixture. They then receive an intradermal injection in their abdomen of 0.10 or 0.15 mL (or for histamine 6.7 or […]) of inflammatory agent and an intravenous injection of 1 mL of 0.5% Evans blue solution in the vein of the penis. These injections are carried out 30 min before the sacrificing.
30 min after these two injections, the rats are sacrificed by cervical dislocation.
At the site of the injection of the inflammatory agent, the skin is cut and placed into glass tubes with a ground[-glass] neck containing 3 mL of fuming hydrochloric acid. […] After allowing the preparation to stand for 30 min, 7 mL of dichloromethane are added. The tubes are periodically agitated for 1 h. The aqueous phase is eliminated by aspiration, and the organic "dichloromethane" phase is filtered. The optical densities are quantified by absorption spectrophotometry at a wavelength of 620 nm, against a blank [control] containing only dichloromethane. The averages of the optical densities of the different lots of treated or control animals are calculated, then a percentage of variation of the values corresponding to the treated [experimental] animals compared to those of the control animals is calculated.

[4] = system: fibroblastic cell lines of mice (L929); test: Cytotoxicity on L929 fibroblastic cell lines (neutral red incorporation); type: cell-based, mouse; settings: L929, up to concentrations equal to their solubility in an aqueous medium
Description: as §1

[5] = single oral administration, 1 g/kg
[6] = single oral administration of 500 mg/kg

SMILES | Increase of capillary resistance, effects after 4 h ([1]; 0.1 mg/kg) | Increase of capillary resistance, effect after 6 h ([1]; 0.1 mg/kg) | Emax [2] [%] | EC50 [2] [nM] | observed signs (mice; [5]) | toxic effect and mortality (mice; [5]) | Zymosan-induced hyperpermeability, effect after 2 h ([3]; 0.1 mg/kg) | Zymosan-induced hyperpermeability, effect after 4 h ([3]; 0.1 mg/kg) | cytotoxicity (viability by neutral red incorporation) [4] | Increase of capillary resistance, effects after 4 h ([1]; 5 mg/kg) | Increase of capillary resistance, effect after 6 h ([1]; 5 mg/kg) | observed signs (mice; [6]) | toxic effect and mortality (mice; [6]) | Zymosan-induced hyperpermeability, effect after 2 h ([3]; 5 mg/kg) | Zymosan-induced hyperpermeability, effect after 4 h ([3]; 5 mg/kg)
Cc1nc2c(s1)C(=O)c1ccccc1C2=O [Example h, 4,9-Dihydro-4,9-dioxo-2-methylnaphtho[2,3-d]thiazole] | 19 % of the control | 19 % of the control | 29 ± 6 | 86 | diarrheas | no observable toxic effect and no mortality | – | – | – | – | – | – | – | – | –
O=C1c2ccccc2C(=O)c2oc(-c3ccccc3)nc21 [Example f, 4,9-Dihydro-4,9-dioxo-2-phenylnaphtho[2,3-d]oxazole] | 7 % of the control | 17 % of the control | 15 ± 1 | 21 | – | no observable toxic effect and no mortality | -15 % of the control | -22 % of the control | noncytotoxic | – | – | – | – | – | –
O=C1c2ccccc2C(=O)c2oc(-c3ccccc3F)nc21 [Example 3, 4,9-Dihydro-4,9-dioxo-2-(2-fluorophenyl)-naphtho[2,3-d]oxazole] | – | – | 17 ± 6 | 36 | – | – | -22 % of the control | -26 % of the control | noncytotoxic | 27 % of the control | 18 % of the control | slight diarrheas | no observable toxic effect and no mortality | – | –
O=C1c2ccccc2C(=O)c2sc(-c3cccs3)nc21 [Example 20, 4,9-Dihydro-4,9-dioxo-2-(2-thienyl)-naphtho[2,3-d]thiazole] | – | – | 24 ± 4 | 110 | – | – | – | – | noncytotoxic | – | – | – | – | – | –
O=C1c2ccccc2C(=O)c2sc(-c3ccccc3)nc21 [Example j, 4,9-Dihydro-4,9-dioxo-2-phenylnaphtho[2,3-d]thiazole] | – | – | 16 ± 6 | 30 | – | – | -14 % of the control | -32 % of the control | noncytotoxic | – | – | – | no observable toxic effect and no mortality | – | –
O=C1c2ccccc2C(=O)c2sc(-c3ccsc3)nc21 [Example 21, 4,9-Dihydro-4,9-dioxo-2-(3-thienyl)-naphtho[2,3-d]thiazole] | – | – | – | – | – | – | – | – | noncytotoxic | 10 % of the control | 22 % of the control | – | – | -22 % of the control | -21 % of the control
O=C1c2ccccc2C(=O)c2oc(-c3cccc(F)c3)nc21 [Example 4, 4,9-Dihydro-4,9-dioxo-2-(3-fluorophenyl)-naphtho[2,3-d]oxazole] | – | – | 29 ± 11 | 42 | – | – | – | – | noncytotoxic | – | – | – | – | – | –
